# Data from patent publication US10307386B2 (priority 2007, dated 2019).
# Assays:
# [1] = test system: obese individuals with NASH; settings: treated for 4-12 weeks; no reported change in body mass index; cited from earlier work
# [2] = test system: leukocyte cystine; settings: cited from earlier work
# [3] = test system: New Zealand white rabbits fed a high-fat diet (HFD); assay: Pilot study: 7-day intraperitoneal cysteamine in rabbits fed a high-fat diet (NAFLD model); assay type: in vivo, rabbit; settings: for mean LDL-cholesterol value: control HFD 272.5 mg/dL; for mean total cholesterol value: control HFD 842 mg/dL; for mean LDH value: control HFD 190 U/L; for increase in LDL-cholesterol compared to baseline values: control HFD about 29-fold; for increase in total cholesterol over baseline value: control HFD approximately 20-fold; for decrease in LDH compared to baseline values: control HFD increased 1.7-fold
# Text: (§1) J. Pathol., 170(3):967-980 (2007). Male New Zealand white rabbits were fed a high-fat diet (HFD) containing 20% corn oil and 1.25% cholesterol in order to induce clinical and histological features characteristic of NAFLD and non-alcoholic steatohepatitis (NASH).
# Endpoints included daily standard clinical observations, quantitative daily food consumption, body weights on Study Day (SD) −1, 2, 5, and 8 (day of necropsy), and blood samples collected on SD-1 and SD8 for the evaluation of selected clinical chemistries (alanine aminotransferase (ALT), aspartate aminotransferase (AST), amylase, lipase, total cholesterol, triglycerides, lactate dehydrogenase (LDH), high density lipoprotein cholesterol (HDL-cholesterol), and low density lipoprotein cholesterol (LDL-cholesterol)) and a full hematology panel. Animals were sacrificed on SD8.
# [4] = test system: New Zealand white rabbits fed a high fat diet (HFD); assay: 8-week study: cysteamine in drinking water in rabbits fed a high-fat diet (NAFLD/NASH model); assay type: in vivo; settings: for mean AST value: control HFD 117.1 U/L
# Text: as §1
# The study design included five groups of eight rabbits.
# Observations during the study included twice weekly body weights, daily food and water consumption, and daily clinical observations. Blood samples were collected prior to the start of the study, and on weeks 2, 6, and 8 for a full panel of hematology parameters and a selected panel of serum chemistries, including ALT, AST, amylase, lipase, total cholesterol, triglycerides, LDH, HDL-cholesterol, and LDL-cholesterol.
# [5] = test system: intracellular cystine (circulating white blood cells); settings: taken regularly; measured in circulating white blood cells; cited from earlier work
# [6] = test system: obese children who had steatosis; settings: vitamin E 400-1000 IU/day for 4-10 months, cited from earlier work
# [7] = delivery of cysteamine to the small intestine
# [8] = week 8, 250 mg/kg/day in drinking water
compound,measurement,setting,value
CC(=O)N[C@@H](CS)C(=O)O [N-acetylcysteine],aminotransferase levels and gamma-GT,[1],improvement
NCCS [cysteamine],time to observed decrease in leukocyte cystine,[2]; delivery into the small intestine,within an hour
same,AUC,[2]; [7],increases
same,Cmax,[2]; [7],increases
same,LDH as % of the control HFD values on SD8,[3]; 75 mg/kg/day IP Q8H,33%
same,LDH as % of the control HFD values on SD8,[3]; 250 mg/kg/day IP Q8H,59%
same,LDL-cholesterol: % less of an increase than the HFD controls,"[3]; SD8, 75 mg/kg/day IP Q8H",23%
same,total cholesterol: % less of an increase than the HFD controls,"[3]; SD8, 75 mg/kg/day IP Q8H",23%
same,mean LDL-cholesterol value,"[3]; SD8, 75 mg/kg/day IP Q8H",210 mg/dL
same,mean total cholesterol value,"[3]; SD8, 75 mg/kg/day IP Q8H",652 mg/dL
same,mean LDH value,"[3]; SD8, 75 mg/kg/day IP Q8H",128 U/L
same,increase in LDL-cholesterol compared to baseline values,"[3]; SD8, 75 mg/kg/day IP Q8H",about 12 fold
same,increase in total cholesterol over baseline value,"[3]; SD8, 75 mg/kg/day IP Q8H",~12 fold
same,decrease in LDH compared to baseline values,"[3]; SD8, 75 mg/kg/day IP Q8H",1.2 fold
same,LDL-cholesterol: % less of an increase than the HFD controls,"[3]; SD8, 250 mg/kg/day IP Q8H",45%
same,decrease in mean AST value vs control HFD group,"[3]; SD8, 250 mg/kg/day IP Q8H",1.9 fold
same,mean AST as % of the control HFD value,"[3]; SD8, 250 mg/kg/day IP Q8H",47%
same,total cholesterol: % less of an increase than the HFD control values,"[3]; SD8, 250 mg/kg/day IP Q8H",59%
same,mean LDL-cholesterol value,"[3]; SD8, 250 mg/kg/day IP Q8H",150.5 mg/dL
same,mean total cholesterol value,"[3]; SD8, 250 mg/kg/day IP Q8H",347 mg/dL
same,mean LDH value,"[3]; SD8, 250 mg/kg/day IP Q8H",77.5 U/L
same,increase in LDL-cholesterol compared to baseline values,"[3]; SD8, 250 mg/kg/day IP Q8H",about 14 fold
same,increase in total cholesterol over baseline value,"[3]; SD8, 250 mg/kg/day IP Q8H",~7.5 fold
same,mean AST value,"[3]; SD8, 250 mg/kg/day IP Q8H, control HFD group 19.0 U/L",10.0 U/L
same,decrease in LDH compared to baseline values,"[3]; SD8, 250 mg/kg/day IP Q8H",3.1 fold
same,body weights,[4]; cysteamine treated animals vs control HFD animals,parallel those of the control HFD animals
same,animals that died on study or were sacrificed moribund,"[4]; rabbit, in vivo, 75 mg/kg/day",Three
same,animals sacrificed moribund,"[4]; rabbit, in vivo, 250 mg/kg/day",One
same,AST levels reduced compared to the HFD diet control animals,[4]; summary of both rabbit studies,1.6- to 1.9 fold
same,reductions of AST compared to the HFD diet control animals,[4]; summary of both rabbit studies,37 to 47%
same,mean AST value,"[4]; week 8, 25 mg/kg/day in drinking water",62.5 U/L
same,increase in HDL-cholesterol over the HFD control mean value,[4]; [8],1.6 fold
same,increase in HDL-cholesterol over the control standard diet value,[4]; [8],3.7 fold
same,mean HDL-cholesterol value,"[4]; week 8, 250 mg/kg/day in drinking water, HFD control 36.9, standard diet 15.7 mg/dL",58.3 mg/dL
same,mean LDH value,"[4]; week 8, 250 mg/kg/day in drinking water, HFD control 375 U/L, standard diet control 125.6 U/L",140 U/L
same,mean AST value,[4]; [8],75.7 U/L
same,change in LDH values compared to the Group 2 HFD controls,"[4]; week 8, all three dose levels (25, 75, 250 mg/kg/day) in drinking water",decrease in LDH values at all three dose levels
same,depletion of intracellular cystine,[5],up to 90%
vitamin E,mean AST levels after treatment,"[6]; decreased from 104±61 IU/L, P<0.002",33±11 IU/L
same,mean ALT levels after treatment,"[6]; decreased from 175±106 IU/L, P<0.01",40±26 IU/L
